BindingDB's records for doi:10.7270/Q2DF6PMF (Nmmlsc, 2007)
Where a name gives a salt, the structure may show the parent alone.

What follows are compounds tested against T1, N-formyl peptide receptor 2 (Homo sapiens, UniProt P25090) (assay: FPRL1 binding inhibitor potency, dose response, cell-based, FPR counter-screen, fluorescent ligand (AID 520)). Settings: not given.
T1 sequence (P25090 whole entry): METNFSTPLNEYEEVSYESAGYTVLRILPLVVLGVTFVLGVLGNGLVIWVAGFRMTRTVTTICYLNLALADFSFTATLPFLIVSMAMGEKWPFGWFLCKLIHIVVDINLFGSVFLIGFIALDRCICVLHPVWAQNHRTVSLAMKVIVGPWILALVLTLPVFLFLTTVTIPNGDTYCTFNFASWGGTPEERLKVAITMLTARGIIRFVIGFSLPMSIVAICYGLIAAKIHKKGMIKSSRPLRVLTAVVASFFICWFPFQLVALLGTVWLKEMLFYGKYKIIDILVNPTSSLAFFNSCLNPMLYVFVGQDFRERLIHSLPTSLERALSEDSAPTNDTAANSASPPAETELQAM

Row | Structure (SMILES) | IC50 [µM] | Ki [µM]
1 | COc1cc(C2C(C(=O)c3ccco3)C(=O)C(=O)N2c2cc(C)on2)cc(Br)c1O (stereo not drawn) [2-(3-bromanyl-5-methoxy-4-oxidanyl-phenyl)-3-(furan-2-ylcarbonyl)-1-(5-methyl-1,2-oxazol-3-yl)-4-oxidanyl-2H-pyrrol-5-one] | > 66.7 | > 40.3
2 | Cc1nc2c(C#N)c[nH]n2c(=O)c1Cc1ccccc1 [5-methyl-7-oxo-6-(phenylmethyl)-1H-pyrazolo[1,5-a]pyrimidine-3-carbonitrile] | > 66.7 | –
3 | CSc1ccccc1NS(=O)(=O)c1ccccc1 [MLS000064343] | > 66.7 | –
4 | O=C1C(=O)N(CCc2ccccc2)C(c2cccnc2)C1C(=O)c1ccco1 (stereo not drawn) [3-(furan-2-carbonyl)-4-hydroxy-1-(2-phenylethyl)-2-pyridin-3-yl-2H-pyrrol-5-one] | > 66.7 | > 40.3
5 | CC(C)(C)CC(=O)Nc1ccc(Nc2ccccc2)cc1 [3,3-dimethyl-N-(4-phenylazanylphenyl)butanamide] | > 66.7 | –
6 | CCCc1nc2ccccc2c2nc(N)nn12 [SMR000073509] | > 66.7 | –
7 | COc1ccccc1NC(=O)CSc1nnc(Cn2nnc(-c3ccccc3)n2)n1-c1ccccc1 [MLS000032410] | > 66.7 | –
8 | Cc1cccc(OCC(=O)Nc2cc(C)ccc2O)c1 [MLS000100112] | > 66.7 | –
9 | C=CCOc1cccc(C2C(C(=O)c3ccco3)C(=O)C(=O)N2CCN2CCOCC2)c1 (stereo not drawn) [3-(furan-2-carbonyl)-4-hydroxy-1-(2-morpholin-4-ylethyl)-2-(3-prop-2-enoxyphenyl)-2H-pyrrol-5-one] | > 66.7 | > 40.3
10 | COc1cccc2c1C(=O)c1c(O)c3c(c(O)c1C2=O)C[C@@](O)(C(C)=O)C[C@@H]3O[C@H]1C[C@H](N)[C@H](O)[C@H](C)O1 [(7S,9S)-9-acetyl-7-[(2R,4S,5S,6S)-4-amino-5-hydroxy-6-methyloxan-2-yl]oxy-6,9,11-trihydroxy-4-methoxy-8,10-dihydro-7H-tetracene-5,12-dione;hydrochloride] | 25.1 | –
11 | COc1ccc(CC(=O)Nc2ccc(-c3nnc(-c4ccc(C)cc4)o3)cc2)cc1 [2-(4-methoxyphenyl)-N-[4-[5-(4-methylphenyl)-1,3,4-oxadiazol-2-yl]phenyl]acetamide] | > 66.7 | –
12 | O=S(=O)(c1c[nH]cn1)N1CCc2ccccc21 [SMR000026956] | > 66.7 | –
13 | CC1CCN(c2nc(-c3ccccc3)c(C#N)c(=O)[nH]2)CC1 [4-hydroxy-2-(4-methylpiperidin-1-yl)-6-phenylpyrimidine-5-carbonitrile] | > 66.7 | –
14 | COc1ccc(S(=O)(=O)NC(C)C(=O)Nc2cccc(C(C)=O)c2)cc1 (stereo not drawn) [MLS000051414] | > 66.7 | –
15 | CCCS(=O)(=O)N1CCCC(C(=O)N2CCC(Cc3ccccc3)CC2)C1 (stereo not drawn) [(4-benzylpiperidin-1-yl)-(1-propylsulfonylpiperidin-3-yl)methanone] | > 66.7 | –
16 | Nc1ccc(Nc2ccccc2)cc1 | > 66.7 | –
17 | CCc1c(C)nc2c(C#N)c(C)[nH]n2c1=O [SMR000013340] | > 66.7 | –
18 | COc1cccc(C2C(C(=O)c3cc4ccccc4o3)C(=O)C(=O)N2c2cc(C)on2)c1OC (stereo not drawn) [3-(1-benzofuran-2-carbonyl)-2-(2,3-dimethoxyphenyl)-4-hydroxy-1-(5-methyl-1,2-oxazol-3-yl)-2H-pyrrol-5-one] | > 66.7 | > 40.3
19 | COc1ccccc1C1C(C(=O)c2ccccc2)C(=O)C(=O)N1CCO (stereo not drawn) [(4Z)-1-(2-hydroxyethyl)-4-[hydroxy(phenyl)methylene]-5-(2-methoxyphenyl)pyrrolidine-2,3-quinone] | > 66.7 | > 40.3
20 | Fc1ccc(-c2nnc3ccc(N4CCCC4)nn23)cc1 [3-(4-fluorophenyl)-6-(1-pyrrolidinyl)-[1,2,4]triazolo[4,3-b]pyridazine] | > 66.7 | –
21 | COc1ccccc1C1C(C(=O)c2ccccc2)C(=O)C(=O)N1CC(C)C (stereo not drawn) [(4Z)-4-[hydroxy(phenyl)methylene]-1-isobutyl-5-(2-methoxyphenyl)pyrrolidine-2,3-quinone] | > 66.7 | > 40.3
22 | C=C(c1ccc(Br)cc1)c1sc(N2CCCC2)nc1O [(5Z)-5-[1-(4-bromophenyl)ethylidene]-2-(1-pyrrolidinyl)-4-thiazolone] | > 66.7 | > 40.3
23 | Cc1ccc(C(=O)C2C(=O)C(=O)N(CCCn3ccnc3)C2c2ccc(OC(C)C)cc2)o1 (stereo not drawn) [1-(3-imidazol-1-ylpropyl)-3-(5-methylfuran-2-yl)carbonyl-4-oxidanyl-2-(4-propan-2-yloxyphenyl)-2H-pyrrol-5-one] | > 66.7 | > 40.3
24 | COCCN1C(=O)C(=O)C(C(=O)c2cccs2)C1c1ccccc1 (stereo not drawn) [1-(2-methoxyethyl)-4-oxidanyl-2-phenyl-3-thiophen-2-ylcarbonyl-2H-pyrrol-5-one] | > 66.7 | > 40.3
25 | CCOc1ccc(C2C(C(=O)c3ccco3)C(=O)C(=O)N2Cc2cccnc2)cc1 (stereo not drawn) [2-(4-ethoxyphenyl)-3-(furan-2-carbonyl)-4-hydroxy-1-(pyridin-3-ylmethyl)-2H-pyrrol-5-one] | > 66.7 | > 40.3
26 | COc1cccc(OC)c1C(=O)C(C#N)c1nc2ccccc2[nH]1 (stereo not drawn) [SMR000024183] | > 66.7 | > 40.3

The remaining lines, values ahead:

Row | IC50 [µM] | Ki [µM] | Structure (SMILES)
27 | 10.9 | – | O=C(O)CCCNc1cc(N2CCC3(CC2)OCCO3)c2noc3c2c1C(=O)c1ccccc1-3 [4-{[3-(1,4-dioxa-8-azaspiro[4.5]dec-8-yl)-6-oxo-6H-anthra[1,9-cd]isoxazol-5-yl]amino}butanoic acid]
28 | > 66.7 | > 40.3 | CCOc1ccc(C(=O)C2C(=O)C(=O)N(CC3CCCO3)C2c2ccco2)cc1 (stereo not drawn) [(4Z)-4-[(4-ethoxyphenyl)-hydroxymethylidene]-5-(2-furanyl)-1-(2-oxolanylmethyl)pyrrolidine-2,3-dione]
29 | > 66.7 | – | COc1ccc(NC(=O)C2C(=O)NC3(C)CC2c2ccccc2O3)cc1 (stereo not drawn) [N-(4-methoxyphenyl)-2-methyl-4-oxo-3,4,5,6-tetrahydro-2H-2,6-methano-1,3-benzoxazocine-5-carboxamide]
30 | > 66.7 | > 40.3 | Cc1nc(C)c(C(=O)C2C(=O)C(=O)N(CCCn3ccnc3)C2c2ccc(Cl)cc2)s1 (stereo not drawn) [2-(4-chlorophenyl)-3-(2,4-dimethyl-1,3-thiazole-5-carbonyl)-4-hydroxy-1-(3-imidazol-1-ylpropyl)-2H-pyrrol-5-one]
31 | > 66.7 | – | O=C(NCC1CCCO1)c1ccc(NC(=O)C2CCCCC2C(=O)O)cc1 (stereo not drawn) [2-[[4-(oxolan-2-ylmethylcarbamoyl)phenyl]carbamoyl]cyclohexane-1-carboxylic acid]
32 | > 66.7 | – | CCc1cc2c(=O)c(-c3nc4ccccc4n3C)c(COCC(=O)O)oc2cc1OC(=O)C(C)(C)C [2-[[7-(2,2-dimethyl-1-oxopropoxy)-6-ethyl-3-(1-methyl-2-benzimidazolyl)-4-oxo-1-benzopyran-2-yl]methoxy]acetic acid]
33 | > 66.7 | > 40.3 | Cc1ccc(C2c3c([nH]c(=S)[nH]c3=O)N=C3CC(C)(C)CC(=O)C32)cc1 (stereo not drawn) [8,8-dimethyl-5-(4-methylphenyl)-2-sulfanylidene-5,7,9,10-tetrahydro-1H-pyrimido[4,5-b]quinoline-4,6-dione]
34 | > 66.7 | – | Cc1oc2cc(O)cc(O)c2c(=O)c1-c1ccc2c(c1)OCCCO2 [3-(3,4-dihydro-2H-1,5-benzodioxepin-7-yl)-2-methyl-5,7-bis(oxidanyl)chromen-4-one]
35 | > 66.7 | – | CCOC(=O)c1ccc(NC(=O)Nc2ccc3c4c(cccc24)C(=O)N3CC)cc1 [4-[(1-ethyl-2-keto-benzo[cd]indol-6-yl)carbamoylamino]benzoic acid ethyl ester]
36 | > 66.7 | > 40.3 | COC(=O)c1ccc(C2C(C(=O)c3ccc(OC)cc3)C(=O)C(=O)N2Cc2ccco2)cc1 (stereo not drawn) [4-[(3Z)-1-(2-furanylmethyl)-3-[hydroxy-(4-methoxyphenyl)methylidene]-4,5-dioxo-2-pyrrolidinyl]benzoic acid methyl ester]
37 | > 66.7 | > 40.3 | COC(=O)c1[nH]c(C)c(C(=O)C2C(=O)C(=O)N(CCN3CCOCC3)C2c2cccs2)c1C (stereo not drawn)
38 | > 66.7 | > 40.3 | Cc1ccc(C)c(C(=O)C2C(=O)C(=O)N(CCCn3ccnc3)C2c2ccncc2)c1 (stereo not drawn) [(4E)-4-[(2,5-dimethylphenyl)-hydroxy-methylene]-1-(3-imidazol-1-ylpropyl)-5-(4-pyridyl)pyrrolidine-2,3-quinone]
39 | > 66.7 | > 40.3 | COc1ccc(OC)c(C2C(C(=O)c3ccco3)C(=O)C(=O)N2CCCN2CCOCC2)c1 (stereo not drawn) [2-(2,5-dimethoxyphenyl)-3-(furan-2-carbonyl)-4-hydroxy-1-(3-morpholin-4-ylpropyl)-2H-pyrrol-5-one]
40 | > 66.7 | > 40.3 | Cc1ccc(C2C(C(=O)c3ccc(Br)cc3)C(=O)C(=O)N2Cc2ccco2)o1 (stereo not drawn) [(4Z)-4-[(4-bromophenyl)-hydroxy-methylene]-1-(2-furfuryl)-5-(5-methyl-2-furyl)pyrrolidine-2,3-quinone]
41 | > 66.7 | – | O=C(Nc1nnc(-c2ccccc2Cl)o1)c1ccc(S(=O)(=O)N2CCCCCC2)cc1 [4-(1-azepanylsulfonyl)-N-[5-(2-chlorophenyl)-1,3,4-oxadiazol-2-yl]benzamide]
42 | > 66.7 | – | COc1ccc(-c2c(C)oc3c(CN4CCN(CCO)CC4)c(O)ccc3c2=O)cc1OC [3-(3,4-dimethoxyphenyl)-7-hydroxy-8-[[4-(2-hydroxyethyl)-1-piperazinyl]methyl]-2-methyl-1-benzopyran-4-one]
43 | > 66.7 | – | CCCCCNC(=O)c1ccc2c(=O)[nH]c3c(C(=O)NCC4CCCO4)sc(=S)n3c2c1 (stereo not drawn) [5-oxo-N3-(2-oxolanylmethyl)-N8-pentyl-1-sulfanylidene-4H-thiazolo[3,4-a]quinazoline-3,8-dicarboxamide]

Same assay, conditions: inactive by the depositor's call

Row | IC50 [µM] | Structure (SMILES)
44 | 31.7 | Cc1[nH]n2c(=O)cc(-c3ccc([N+](=O)[O-])cc3)nc2c1-c1ccccc1 [MLS000547439]
